Laboratory results reported in patent US20040220149A1, “Nerve cell survival promoters containing cyclic phosphatidic acid derivative” (priority 2001, published 2004).

Key:
Format in all cases: cell-based
[1] = system: primary cultured nerve cells derived from a hippocampus of a rat fetal brain; test: Measurement of the elongation of neurites
Procedure: (§1) (A-1) Preparation and Culturing of the Primary Cultured Nerve Cells Derived From a Hippocampus of a Rat Fetal Brain
(§2) Sprague-Dowley rat with 16 days of pregnancy were used as material. The rat were anesthetized with ether, from which the fetal was taken out. The whole brain was taken out under a stereomicroscope, and a hippocampus inside the cerebral cortex was picked out. The picked out hippocampus was collected in a 15 ml centrifuging tube, and 0.5 ml of 2.5% trypsin and a culture solution was added to be a 5 ml solution. The mixture was incubated at 37° C. for 15 minutes and then centrifuged at 3,000 rpm for 15 minutes. The supernatant was removed, 5 ml of the culture solution was added, and the mixture was centrifuged at 3,000 rpm for 15 minutes. The procedure was additionally repeated twice. After adding 3-5 ml of the culture solution, the resultant was pipetted with a Pasteur pipette and then with an injection needle (TERUMO NEEDLE (0.70×38 mm); made by Terumo). The cells, which were finally dissociated through a cell strainer (FALCON Cell Strainer 70 μm; made by FALCON), were primarily cultured on a plate. A culture liquid and a method for coating a plate which allow the nerve cells to be cultured without aggregation, were studied.
(A-3) Measurement of the Elongation of Neurites
In order to study the influence of cPA on the elongation of neurites, the cells were primarily cultured according to the method as described in (A-1), and were photographed at 12, 18 and 24 hours after the start of the culture. The average length of neurites per cell and the number of cells having the neurite at respective time points were analyzed by an image analysis software (NIH Image 1.62).
5 μM of oleoyl cPA was added to the cell culture solution, and the cells were photographed after 24, 48, and 72 hours. The average length of neurites per cell was analyzed by the analysis with the image analysis software (NIH Image 1.62). […] The effect was strongest after 24 hours, as compared with those after 48 hours (1.5 times) and 72 hours (1.2 times) (FIG. 10(a)). Thus, it was considered that the evaluation of the action of cPA on the elongation of neurites at earlier time points was necessary, and the effect of cPA at various levels on the elongation of neurites was studied at 12, 18 and 24 hours after addition. As the result, at the time point after 12 hours, the elongation of neurites in the sample to which cPA of 1.0 μM was added became about 1.7 times that of the control, and gave the maximum value (FIG. 10(b)).

[2] = system: primary cultured nerve cells derived from a hippocampus of a rat fetal brain; test: Survival rate of primary cultured nerve cells derived from rat fetal hippocampus
Procedure: as §1
as §2, with “studied. […]” for “studied.”

[3] = system: NIH-3T3, a mouse-derived fibroblast cell; test: Formation of actin stress fiber in NIH-3T3 by addition of lysophospholipids; conditions: 10 μM lipid, 37° C., 30 minutes, serum-starved NIH-3T3, Rhodamine phalloidin staining; control without lipid: no stress fiber
Procedure: (A-5) Formation of Stress Fiber in NIH-3T3 by Addition of Various Lysophospholipids
NIH-3T3, a mouse-derived fibroblast cell, was incubated in a Dulbecoo's Modified Eagle's Medium (DMEM) containing 10% fetal bovine serum (FBS; made by Moregate), and was used in the Experiment. 2.5×10^4 cells of the NIH-3T3 were inoculated in a petri dish (10 cm in diameter) paved with cover glasses of 22 mm in diameter, and the medium was replacing with a FBS-free medium after 24 hours, and the cells were incubated in a serum starvation state for 48 hours. 10 μM of the lysophospholipid was added, and the cells were incubated at 37° C. for 30 minutes for stimulation. Then, the cells were fixed in the Dalbecco's PBS containing 3.7% of paraformaldehyde and 0.1% of Triton X-100 at room temperature for 10 minutes. Thereafter, the cells were stained with 5 units/ml of rhodamine phalloidin (made by Funakoshi) at 37° C. for 1 hour. The cover glasses were washed with PBS thrice, and observation was carried out by a cofocus laser microscope TCS NT Control laser Scanning Microscope (made by Leica).
The product obtained by the A sp362-derived PLD reaction was studied with respect to its biochemical activity in order to confirm further that it was a compound which is identical to cPA. Namely, the activity of forming actin stress fiber in a fibroblast cell, one of the physiological acteivities of cPA, was studied. To NIH-3T3, i.e. a fibroblast cell line derived from mouse, in the subconfluent state in the serum starvation state, each 10 μM of LPA, a chemically synthesized PHYLPA, or cPA, i.e. the PLD reaction product was added at 37° C. for 30 minutes, and then actin stress fiber was stained with Rhodamine phalloidin, and observation was carried out.

[4] = system: primary cultured nerve cells derived from a hippocampus of a rat fetal brain; test: Influence of P13K inhibitors on the increase of nerve cell survival rate by cPA; conditions: 10 μM, nerve cell culture with cPA, 48 hours
Procedure: Wortmannin (made by Sigma) and LY294002 (made by Sigma), which are inhibitors against phosphatidyl inositol 3-kinase (P13K), were dissolved in DMSO at the concentration of 10 mM and 50 mM respectively, and diluted with PBS. Each of the solutions was added to the cell culture solution at the respective final concentrations of 30 nM and 10 μM. The inhibitors were added to the cell culture solution at 2 hours prior to the addition of cPA, to carry out pretreatment. The cells were photographed at 48 hours after the addition of cPA, and the survival of the cells was morphologically judged on judged on the photographs to calculate the survival rate.

CCCCCCCC/C=C\CCCCCCCC(=O)OCC1COP(=O)(O)O1 (stereo not shown) [oleoyl cPA, 1-oleoyl cyclic phosphatidic acid]
ratio of cells having neurites ([1]; 1.0 μM, 24 hours after addition): high | elongation of neurites relative to control (maximum value) ([1]; 1.0 μM, after 12 hours): about 1.7 times | average length of neurites per cell relative to control ([1]; 5 μM, after 24 hours): twice longer than that of the control | average length of neurites per cell relative to control ([1]; 5 μM, after 48 hours): 1.5 times | average length of neurites per cell relative to control ([1]; 5 μM, after 72 hours): 1.2 times | elongation of neurites compared with control without cPA addition ([1]; 5 μM, serum-free culture): the elongation of neurites was also observed | survival of the cells compared with control without cPA addition ([2]; 5 μM, serum-free culture): the survival of the cells became better | cPA level most effective for the cell survival ([2]; 0.5, 1.0, 5.0 or 10.0 μM tested, cell density 3.0×10^5 cells/cm^2): 1.0 µM | formation of actin stress fiber [3]: the formation of stress fibers was observed

nerve growth factor [NGF]
elongation of neurites compared with that of 1.0 μM cPA (about 1.7 times control) ([1]; (optimal level), after 12 hours): comparable

lysophosphatidic acid [LPA]
formation of actin stress fiber [3]: the formation of stress fibers was observed

CCCCCC[C@@H]1C[C@@H]1CCCCCCCC(=O)OC[C@@H]1COP(=O)(O)O1 [PHYLPA]
formation of actin stress fiber [3]: the formation of stress fibers was observed

O=c1cc(N2CCOCC2)oc2c(-c3ccccc3)cccc12 [LY294002]
cytotoxicity (cell morphology) [4]: many cells were destroyed and deformed
